Source: ChEMBL document CHEMBL1201862, “PubChem BioAssay data set” (2004)
The source made the active and inactive calls.

Experiments:
Nonstructural protein 1 = Nonstructural protein 1 (Influenza A virus, UniProt Q194T2); type: functional, Influenza A virus (A/California/07/2009(H1N1))
MDCK [1] = test: MDCK cell cytotoxicity, dose response, cytotoxicity control (AID 540296); type: functional; conditions: Canis lupus familiaris
MDCK [2] = test: antiviral activity against H1N1 influenza, dose response, cell-based, strain KY180 (AID 540254); type: functional; conditions: Canis lupus familiaris
Vero = test: Vero E6 cell cytotoxicity, dose response, cytotoxicity control (AID 540298); type: functional; conditions: Chlorocebus sabaeus
[3] = target: T1, High affinity choline transporter 1 (Homo sapiens, UniProt Q9GZV3); test: human choline transporter blockers, potency – cell-based, 5-point CRC, membrane potential dye, dose response (AID 504840); type: functional
T1 sequence (Q9GZV3 whole entry): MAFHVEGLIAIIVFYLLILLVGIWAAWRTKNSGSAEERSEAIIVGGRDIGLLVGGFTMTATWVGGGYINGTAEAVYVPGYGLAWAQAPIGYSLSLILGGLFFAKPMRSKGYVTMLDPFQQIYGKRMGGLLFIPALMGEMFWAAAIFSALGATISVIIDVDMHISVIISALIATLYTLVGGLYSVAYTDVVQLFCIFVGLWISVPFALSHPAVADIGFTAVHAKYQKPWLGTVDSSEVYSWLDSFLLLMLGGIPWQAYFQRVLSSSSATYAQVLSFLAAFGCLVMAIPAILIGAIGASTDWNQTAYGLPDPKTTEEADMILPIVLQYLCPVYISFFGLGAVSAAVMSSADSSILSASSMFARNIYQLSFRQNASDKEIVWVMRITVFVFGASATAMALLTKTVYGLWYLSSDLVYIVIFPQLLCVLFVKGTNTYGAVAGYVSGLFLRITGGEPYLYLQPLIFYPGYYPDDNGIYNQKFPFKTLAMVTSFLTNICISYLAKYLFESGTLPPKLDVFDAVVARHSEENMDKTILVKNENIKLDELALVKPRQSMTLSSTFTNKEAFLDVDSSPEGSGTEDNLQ

MDCK [4] = test: antiviral activity against H1N1 influenza, dose response, cell-based, strain KY136 (AID 540257); type: functional; conditions: Canis lupus familiaris
cells [5] = type: functional, cell-based
[6] = Trypanosoma cruzi growth suppression in host cells – NIH3T3 host cells, beta-gal luminescence, confirmation (AID 2044); type: functional, cell-based;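 note: intracellular parasites grown in NIH/3T3 mouse fibroblasts as host cells; luminescent beta-galactosidase reporter signal from transgenic T. cruzi replicating inside host cells; inhibitors lower the luminescence signal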
HEK293 [7] = test: SAR Analysis of small molecule inhibitors of T-cell specific antigen receptor-induced NF-kB activation in a HEK-293T cell line using a luminescence assay - Set 2. [Related pubchem assays (depositor defined):AID435003, AID435012, AID489026]; type: functional, cell-based; conditions: Homo sapiens
cells [8] = type: functional, cell-based; remark: listed apart in the source
[9] = NIH3T3 cell viability loss – ATP luminescence, mouse fibroblasts, counter-screen, dose response (AID 2010); type: functional, cell-based;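 note: cells exposed to compound for about 90 hours before reading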
INS1 = test: INS-1E survival protection against cytokine death – cell-based, luminescence, retest, dose response (AID 449756); type: functional; conditions: Rattus norvegicus;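 note: cell death triggered by IL-1 beta plus TNF-alpha plus IFN-gamma mixture; protective hits raise ATP signal compared with cytokine alone wells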
[10] = HEK-293T viability loss after treatment – luminescence, T-cell screen hits, cytotoxicity control for TCR NF-kB inhibitor project, dose response (AID 489026); type: functional, cell-based;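 note: cells exposed to compound about 14 hours before the viability readout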
HEK293 [11] = test: HEK293T cell viability loss, resazurin readout – resazurin fluorescence, cytotoxicity control for NF-kB activator project, SAR follow-up (AID 493251); type: functional, cell-based
[12] = tested on: Streptococcus sp. 'group A'; test: Streptococcus pyogenes SK(-)GAS viability under kanamycin – luminescence, BacTiterGlo, confirmation, counter-screen for streptokinase expression inhibitor project, dose response (AID 1900); type: functional, organism-based
[13] = target: T2, Serine/threonine-protein phosphatase (Candida dubliniensis (strain CD36 / CBS 7987 / NCPF 3949 / NRRLY-17841) (Yeast), UniProt B9W6M3); test: blockers of CaCl2-induced CDRE-lacZ signaling – S. cerevisiae, luminescence, secondary, dose response (AID 2388); type: functional, cell-based;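 note: yeast reporter cells carrying a calcineurin-responsive lacZ construct stimulated with calcium chloride; luminescent beta-galactosidase reporter signal in whole cells rather than isolated phosphatase activity; potency for inhibition where a drop in reporter signal means calcineurin blockade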
T2 sequence (B9W6M3 whole entry): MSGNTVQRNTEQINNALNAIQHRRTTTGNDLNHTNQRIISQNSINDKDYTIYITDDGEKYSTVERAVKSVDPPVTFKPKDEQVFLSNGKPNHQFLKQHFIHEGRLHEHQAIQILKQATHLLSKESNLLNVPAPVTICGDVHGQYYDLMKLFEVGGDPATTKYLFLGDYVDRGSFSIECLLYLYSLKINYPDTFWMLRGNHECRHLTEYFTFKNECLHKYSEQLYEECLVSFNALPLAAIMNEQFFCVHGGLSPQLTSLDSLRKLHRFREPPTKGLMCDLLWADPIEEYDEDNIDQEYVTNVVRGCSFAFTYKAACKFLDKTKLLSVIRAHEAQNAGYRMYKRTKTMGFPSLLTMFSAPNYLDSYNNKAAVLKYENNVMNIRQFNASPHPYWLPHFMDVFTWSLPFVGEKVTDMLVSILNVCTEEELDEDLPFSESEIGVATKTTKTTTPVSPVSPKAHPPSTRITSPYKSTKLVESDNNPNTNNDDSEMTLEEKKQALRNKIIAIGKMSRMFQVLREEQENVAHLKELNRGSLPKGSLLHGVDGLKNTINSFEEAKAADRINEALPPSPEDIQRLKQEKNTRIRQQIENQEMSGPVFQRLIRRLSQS

[14] = Counterscreen for AddAB inhibitors: absorbance-based bacterial cell-based high throughput dose response assay for inhibitors of bacterial viability. [Related pubchem assays (depositor defined):AID435030, AID449728, AID449731, AID488942, AID488955, AID488956]; type: functional
Streptococcus = test: GAS UMAA2166 growth inhibition – luminescence, BacTiterGlo, counter-screen for streptokinase expression inhibitor project, dose response (AID 1915); type: functional, organism-based;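 note: potency for reduction of bacterial viability or growth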
[15] = fluconazole-exposed Candida albicans growth modulators – fluorescence, retest, confirmation (AID 2467); type: functional, cell-based
Streptokinase A = target: T3, Streptokinase A (Streptococcus pyogenes serotype M1, UniProt P10520); test: viability-normalized secreted streptokinase activity reduction – plasminogen activation absorbance, OD405, dose response (AID 1914); type: functional, Streptococcus pyogenes M1 GAS;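 note: secreted streptokinase activity via plasminogen activation per viability signal from cell pellet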
T3 sequence (P10520 whole entry): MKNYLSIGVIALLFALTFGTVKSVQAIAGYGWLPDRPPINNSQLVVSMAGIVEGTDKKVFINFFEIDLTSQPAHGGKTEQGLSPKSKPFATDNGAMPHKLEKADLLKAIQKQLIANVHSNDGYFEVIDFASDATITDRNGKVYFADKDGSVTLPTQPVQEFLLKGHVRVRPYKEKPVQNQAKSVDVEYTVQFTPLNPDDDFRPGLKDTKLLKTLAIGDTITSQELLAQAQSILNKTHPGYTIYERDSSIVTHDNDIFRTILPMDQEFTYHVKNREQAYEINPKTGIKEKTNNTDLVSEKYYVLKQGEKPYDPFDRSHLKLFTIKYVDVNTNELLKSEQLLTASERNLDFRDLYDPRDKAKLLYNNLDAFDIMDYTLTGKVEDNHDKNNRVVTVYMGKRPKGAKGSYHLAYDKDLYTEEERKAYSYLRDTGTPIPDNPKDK

HEK293 [16] = test: SAR Analysis of small molecule inhibitors of T-cell specific antigen receptor-induced NF-kB activation in a HEK-293T cell line using a luminescence assay. [Related pubchem assays (depositor defined):AID435003, AID435012, AID489026]; type: functional, cell-based; conditions: Homo sapiens
Jurkat [17] = test: SAR Analysis of small molecule inhibitors of T-cell specific antigen receptor-induced NF-kB activation in a Jurkat cell line using a luminescence assay. [Related pubchem assays (depositor defined):AID435003, AID435012, AID465]; type: functional, cell-based; conditions: Homo sapiens
[18] = Luminescence-based dose response cell-based high throughput screening assay for cytotoxic compounds using the IEC-6 intestinal epithelial cell line. [Related pubchem assays: 1858 (Summary AID.), 1825 (Counterscreen.), 1907 (Confirmation screen.)]; type: functional
Exodeoxyribonuclease V = Exodeoxyribonuclease V (Escherichia coli (strain K12), UniProt P04993+P07648+P08394); test: RecBCD inhibition via phage-restricted bacterial growth – absorbance, V66 E. coli, mutant T4 phage, counter-screen for AddAB inhibitor project, dose response (AID 492957); type: functional, cell-based, Escherichia coli str. K-12 substr. MG1655
Sequence of Exodeoxyribonuclease V (P04993 whole entry): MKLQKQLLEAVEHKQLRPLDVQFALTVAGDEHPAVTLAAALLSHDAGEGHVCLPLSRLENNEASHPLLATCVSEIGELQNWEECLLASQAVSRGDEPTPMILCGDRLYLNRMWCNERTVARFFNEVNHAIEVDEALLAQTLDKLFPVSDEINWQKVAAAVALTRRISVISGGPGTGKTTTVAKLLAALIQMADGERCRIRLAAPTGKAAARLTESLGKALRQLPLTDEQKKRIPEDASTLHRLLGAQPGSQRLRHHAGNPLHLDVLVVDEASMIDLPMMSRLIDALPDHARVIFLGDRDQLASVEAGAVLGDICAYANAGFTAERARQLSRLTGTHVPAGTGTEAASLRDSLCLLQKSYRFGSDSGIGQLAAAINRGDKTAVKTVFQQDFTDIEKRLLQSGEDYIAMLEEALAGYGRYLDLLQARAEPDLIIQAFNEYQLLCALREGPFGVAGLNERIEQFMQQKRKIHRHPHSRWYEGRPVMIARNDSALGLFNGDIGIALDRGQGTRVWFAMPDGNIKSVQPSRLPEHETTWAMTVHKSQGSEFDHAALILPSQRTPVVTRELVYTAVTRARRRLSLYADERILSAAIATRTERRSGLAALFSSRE
Sequence of Exodeoxyribonuclease V (P07648 whole entry): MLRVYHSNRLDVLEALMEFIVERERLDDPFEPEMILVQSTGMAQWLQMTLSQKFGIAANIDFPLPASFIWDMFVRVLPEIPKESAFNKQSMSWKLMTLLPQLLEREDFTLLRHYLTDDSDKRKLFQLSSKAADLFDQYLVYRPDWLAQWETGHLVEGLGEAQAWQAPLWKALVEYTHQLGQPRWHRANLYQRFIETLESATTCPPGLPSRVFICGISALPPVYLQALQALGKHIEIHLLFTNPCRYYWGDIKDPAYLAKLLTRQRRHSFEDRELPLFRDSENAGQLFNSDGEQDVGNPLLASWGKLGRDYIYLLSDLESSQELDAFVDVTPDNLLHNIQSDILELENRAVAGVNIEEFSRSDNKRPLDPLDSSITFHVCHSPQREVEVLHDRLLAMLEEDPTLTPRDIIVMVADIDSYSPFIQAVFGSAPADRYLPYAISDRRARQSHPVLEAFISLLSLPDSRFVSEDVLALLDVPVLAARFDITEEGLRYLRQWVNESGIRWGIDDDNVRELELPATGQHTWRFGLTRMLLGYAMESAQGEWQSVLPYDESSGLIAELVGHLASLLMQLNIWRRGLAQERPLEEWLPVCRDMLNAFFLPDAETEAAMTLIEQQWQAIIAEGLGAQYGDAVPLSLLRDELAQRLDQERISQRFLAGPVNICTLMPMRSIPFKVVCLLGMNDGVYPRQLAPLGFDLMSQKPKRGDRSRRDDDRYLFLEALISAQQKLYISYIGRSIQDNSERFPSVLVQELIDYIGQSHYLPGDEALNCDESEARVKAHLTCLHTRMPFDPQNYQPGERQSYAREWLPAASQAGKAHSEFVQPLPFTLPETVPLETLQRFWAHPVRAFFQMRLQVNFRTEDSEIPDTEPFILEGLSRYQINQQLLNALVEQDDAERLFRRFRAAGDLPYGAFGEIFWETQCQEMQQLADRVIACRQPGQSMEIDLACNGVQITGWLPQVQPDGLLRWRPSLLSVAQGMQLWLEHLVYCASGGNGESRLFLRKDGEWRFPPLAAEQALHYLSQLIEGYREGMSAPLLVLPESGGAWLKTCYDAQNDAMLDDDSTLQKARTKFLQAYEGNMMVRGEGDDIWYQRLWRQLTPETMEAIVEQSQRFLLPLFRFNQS
Sequence of Exodeoxyribonuclease V (P08394 whole entry): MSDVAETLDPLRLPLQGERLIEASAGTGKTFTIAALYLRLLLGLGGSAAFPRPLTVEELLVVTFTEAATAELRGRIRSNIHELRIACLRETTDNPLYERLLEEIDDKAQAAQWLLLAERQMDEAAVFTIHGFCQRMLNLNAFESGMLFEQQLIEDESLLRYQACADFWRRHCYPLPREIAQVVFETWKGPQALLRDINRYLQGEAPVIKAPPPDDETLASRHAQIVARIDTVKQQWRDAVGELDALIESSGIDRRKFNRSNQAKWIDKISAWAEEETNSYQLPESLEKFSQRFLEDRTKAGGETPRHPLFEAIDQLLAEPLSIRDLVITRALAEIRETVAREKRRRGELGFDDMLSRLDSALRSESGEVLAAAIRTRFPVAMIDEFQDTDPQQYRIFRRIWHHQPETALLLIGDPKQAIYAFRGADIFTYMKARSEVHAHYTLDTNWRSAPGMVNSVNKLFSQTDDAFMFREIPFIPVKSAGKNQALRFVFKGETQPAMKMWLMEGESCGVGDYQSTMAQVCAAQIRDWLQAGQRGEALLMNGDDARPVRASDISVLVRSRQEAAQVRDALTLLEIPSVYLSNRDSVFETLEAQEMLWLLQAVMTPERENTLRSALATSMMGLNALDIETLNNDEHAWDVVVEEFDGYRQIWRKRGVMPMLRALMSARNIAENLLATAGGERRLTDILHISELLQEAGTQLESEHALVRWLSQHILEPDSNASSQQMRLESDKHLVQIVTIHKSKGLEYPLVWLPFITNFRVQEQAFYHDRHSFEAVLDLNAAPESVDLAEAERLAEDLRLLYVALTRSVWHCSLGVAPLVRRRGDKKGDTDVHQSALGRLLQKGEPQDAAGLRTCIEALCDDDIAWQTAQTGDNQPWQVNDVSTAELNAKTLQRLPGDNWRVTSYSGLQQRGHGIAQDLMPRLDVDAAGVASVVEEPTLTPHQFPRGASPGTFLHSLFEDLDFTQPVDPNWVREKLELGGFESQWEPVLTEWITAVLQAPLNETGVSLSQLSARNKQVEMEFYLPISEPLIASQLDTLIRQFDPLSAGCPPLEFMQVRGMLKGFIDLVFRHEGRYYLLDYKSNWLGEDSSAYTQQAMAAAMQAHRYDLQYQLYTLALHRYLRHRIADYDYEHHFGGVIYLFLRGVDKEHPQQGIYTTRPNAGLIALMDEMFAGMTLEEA

[19] = target: ATP-dependent molecular chaperone HSP82 (Candida albicans (strain WO-1) (Yeast), UniProt C4YTQ8); test: steroid-induced GRE reporter decrease in yeast – S. cerevisiae, luminescence, Hsp90 inhibitor project, dose response (AID 2400); type: functional, cell-based;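 note: beta-galactosidase luminescence from glucocorticoid response element reporter as proxy for Hsp90 function; inhibitor potency where signal loss means Hsp90 inhibition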
Sequence of ATP-dependent molecular chaperone HSP82 (C4YTQ8 whole entry): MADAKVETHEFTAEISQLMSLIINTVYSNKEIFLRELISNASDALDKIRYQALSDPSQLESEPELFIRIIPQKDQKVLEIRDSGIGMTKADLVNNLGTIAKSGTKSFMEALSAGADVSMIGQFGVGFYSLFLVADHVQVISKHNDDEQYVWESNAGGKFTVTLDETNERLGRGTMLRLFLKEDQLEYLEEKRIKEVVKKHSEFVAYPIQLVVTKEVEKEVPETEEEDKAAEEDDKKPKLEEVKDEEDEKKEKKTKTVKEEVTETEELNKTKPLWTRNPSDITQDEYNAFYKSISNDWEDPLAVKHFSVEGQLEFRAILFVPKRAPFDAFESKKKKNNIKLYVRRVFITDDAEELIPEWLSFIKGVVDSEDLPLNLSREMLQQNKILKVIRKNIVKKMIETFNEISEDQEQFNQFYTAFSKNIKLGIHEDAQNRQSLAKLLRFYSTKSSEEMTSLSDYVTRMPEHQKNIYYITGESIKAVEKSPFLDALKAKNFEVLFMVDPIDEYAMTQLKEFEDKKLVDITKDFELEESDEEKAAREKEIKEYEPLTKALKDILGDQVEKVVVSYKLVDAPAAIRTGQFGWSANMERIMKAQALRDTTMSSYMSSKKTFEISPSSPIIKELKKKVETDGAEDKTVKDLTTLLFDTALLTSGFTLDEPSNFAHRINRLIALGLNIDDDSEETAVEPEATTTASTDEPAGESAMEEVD

[20] = NIH-3T3 fibroblast cytotoxicity, dose response, cytotoxicity control, cell-based, fluorescence, Alamar Blue, secondary assay (AID 2327); type: functional;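 note: NIH-3T3 mouse fibroblasts cultured with fluconazole at 8 µg/mL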
HEK293 [21] = test: EBV LMP1 TES2 canonical NF-kB signalling blockers – cell-based, HEK293, luciferase, cherry-pick, dose response (AID 588343); type: functional; conditions: Homo sapiens
Jurkat [22] = test: SAR Analysis of small molecule inhibitors of T-cell specific antigen receptor-induced NF-kB activation in a Jurkat cell line using a luminescence assay - Set 2. [Related pubchem assays (depositor defined):AID435003, AID435012, AID465]; type: functional, cell-based; conditions: Homo sapiens
[23] = target: Heat shock protein HSP 90-alpha (Homo sapiens, UniProt P07900); type: functional, organism-based

Sequence of Nonstructural protein 1 (Q194T2 whole entry): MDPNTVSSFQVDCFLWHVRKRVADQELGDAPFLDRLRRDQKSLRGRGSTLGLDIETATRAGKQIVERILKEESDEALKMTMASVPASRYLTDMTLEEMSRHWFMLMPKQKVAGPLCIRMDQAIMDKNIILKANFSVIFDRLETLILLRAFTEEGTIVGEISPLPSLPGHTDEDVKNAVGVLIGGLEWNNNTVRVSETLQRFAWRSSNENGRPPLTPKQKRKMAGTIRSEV

## O=C(Nc1cccc(CNCCc2c[nH]c3ccccc23)c1)c1ccccc1Cl
Nonstructural protein 1
  IC50: > 100 µM (active)
MDCK [1]
  CC50: 10.9 µM (active)
MDCK [2]
  IC50: > 100 µM (active)
Vero
  CC50: 22.4 µM (active)
[3]
  IC50: 17.4 µM (active)
MDCK [4]
  IC50: 2.93 µM (active)

## CCCC(=O)NC(c1ccc(C)cc1)c1ccc2cccnc2c1O (stereo not given)
Cells [5]
  EC50: 6.34 µM (active)
[6]
  EC50: 0.348 µM (active)
HEK293 [7]
  IC50: 6.36 µM (active)
Cells [8]
  EC50: > 350 µM (not active)
[9]
  EC50: 0.588 µM (active)
INS1
  AC50: 0.535 µM (active)
[10]
  IC50: > 80 µM (inactive)
HEK293 [11]; Homo sapiens, HEK293
  IC50: 8.08 µM (active)
HEK293 [11]; hek293
  IC50: 5.93 µM (active)
[12]
  EC50: 6.65 µM (active)
[13]
  EC50: > 180 µM (inactive)
[14]
  IC50: > 119 µM (inactive)
Streptococcus
  EC50: 14.7 µM (active)
[15]
  EC50: 0.449 µM (active)
Streptokinase A
  EC50: > 150 µM (not active)
HEK293 [16]
  IC50: 6.94 µM (active)
Jurkat [17]
  IC50: 3.79 µM (active)
[18]
  IC50: 1.47 µM (active)
Exodeoxyribonuclease V
  IC50: > 119 µM (inactive)
[19]
  EC50: > 150 µM (inactive)
[20]
  EC50: 23.6 µM (inconclusive)
HEK293 [21]
  AC50: 4.94 µM (active)
Jurkat [22]
  IC50: 2.52 µM (active)
[23]
  AC50: 3.35 µM (active)
